Square brackets hold non-standard residues; d marks the D form. Ends that are not written are not given here. Peptide text beside a SMILES is read from it. * marks the point of attachment. Phe(3,4-F2) = N[C@@H](Cc1ccc(F)c(F)c1)C(=O)O; Phe(4-Br) = N[C@@H](Cc1ccc(Br)cc1)C(=O)O; Phe(4-NH2) = Nc1ccc(C[C@H](N)C(=O)O)cc1; Dab = NCC[C@H](N)C(=O)O; Nle = CCCC[CH](N)C(=O)O; Abu = CC[C@H](N)C(=O)O; Dap = NC[C@H](N)C(=O)O; X1 = OB(O)C(CCCBr)N*; Ahx = NCCCCCC(=O)O
Assays:
KLK2 = target: T1, KLK2 (Homo sapiens, UniProt P20151); assay: Determination of kinact/KI, fluorogenic substrate kinetic assay; type: biochemical; details: for selectivity (fold-change): KLK2 over KLK14
T1 construct: purchased R&D Systems
From the text: 1.1 Chemicals and Reagents
All chemicals and reagents were purchased from commercial suppliers and used without further purification. Rink Amide resin (100-200 mesh) and 2-Chlorotrityl chloride resin (100-200 mesh, 1% DVB) were obtained from Merck. Natural Fmoc-amino acids were obtained from AGTC Bioproducts Ltd. Unnatural Fmoc-amino acids were obtained from Fluorochem, Alfa Aesar, VWR, Merck, Iris Biotech, Bachem or Sigma Aldrich. Culture media, fetal bovine serum, trypsin, antibiotics and chemicals required for differentiation of osteoprogenitor cells were obtained from Sigma Aldrich, Gibco or Invitrogen. Amicon 3 KDa Centrifugal filter units were obtained from Merck. Recombinant human KLK2 and KLK14 were obtained from R&D Systems and activated using the supplier’s protocol. All remaining chemical reagents were obtained from VWR, Sigma Aldrich or Merck. […]
Fluorescent plate-based enzymatic assays were carried out using an Envision 2104 Multilabel Plate Reader (PerkinElmer) operating in kinetic mode for a minimum of 20 min with excitation/emission […]
Specificity […]
was calculated by normalizing RFUs-1 to the highest value, which was set at 100 %.
Calculations were made in GraphPad Prism 5.
Determination of kcat/KM: The KLK2 substrate and KLK14 substrate were serially diluted in the appropriate KLK assay buffer and 25 μL was added to the wells of a 96-well plate. Next, 25 μL of KLK2 (1.5 nM) or KLK14 (75 pM) was added to each well containing the substrate and the enzyme-substrate reaction was monitored for at least 10 min. The linear portion of each progress curve was used to calculate relative fluorescence units per second (RFUs-1).
KM, kcat, and kcat/KM parameters were determined by nonlinear regression in GraphPad Prism 5 (GraphPad Software). Each experiment was repeated three times and the results are presented as an average ± SEM.
Determination of kinact/KI: Under pseudo-first order conditions, a fixed amount of KLK2 (1.5 nM) or KLK14 (37 pM) was incubated with peptidyl-DPP analogue at different concentrations in the presence of 5 µM of substrate. The pseudo first-order rate constant, kobs, was calculated for each probe concentration using non-linear regression analysis in GraphPad Prism 5. The obtained values were plotted against probe concentration to afford the apparent second order rate constant kinact(app)/KI. The absolute value of the second order rate constant was then obtained by adjusting for the substrate competition factor (1 + [S]/Km), where S is the concentration of substrate in the assay and KM is the Michaelis Menten constant for that substrate/enzyme reaction.
2.5 Cell Migration Assays
Cell migration: The assay was performed as per the manufacturer’s protocol (https://www.corning.com/catalog/cls/documents/protocols/an_Chemotaxis_protocol.pdf).
Briefly, LNCaP-WT, LNCaP-mK14 and LNCaP-K14 cells were grown to 80% confluency in RPMI media supplemented with 5 % FBS. The media was then aspirated, the cells were washed with 2 mL PBS (3*) and incubated with serum-free RPMI (without phenol red) supplemented with 10 nM DHT ± 100 ng/mL Dox for 24 h. Cells were trypsinized, washed twice with serum-free RPMI and resuspended in serum-free RPMI. 100,000 cells in 100 µL of serum-free RPMI was then added to the transwell inserts placed in a 24-well plate (Corning […]
Figure S15: KLK2 and KLK14 substrates. (A) Structures (B) Optimal assay conditions for […]
S19) inhibitors (C) Michaelis-Menten (K M) and rate (kcat) constants for KLK substrates

KLK14 = target: T2, KLK14 (Homo sapiens, UniProt Q9P0G3); assay: as above; type: biochemical; details: for Kinact/KI KLK14 / kinact/KI: mean ± SEM (N = 3); for selectivity (fold-change): KLK14 over KLK2
T2 construct: purchased R&D Systems
T2 sequence (Q9P0G3 25-251): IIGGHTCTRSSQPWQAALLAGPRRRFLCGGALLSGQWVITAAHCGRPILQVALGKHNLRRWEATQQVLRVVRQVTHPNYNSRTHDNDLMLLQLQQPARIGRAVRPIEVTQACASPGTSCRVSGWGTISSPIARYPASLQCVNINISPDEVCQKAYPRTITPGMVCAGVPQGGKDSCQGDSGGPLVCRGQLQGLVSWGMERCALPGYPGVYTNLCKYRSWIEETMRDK

LNCaP cells = assay: KLK activity and expression in LNCaP cells after AR signaling perturbation (streptavidin enrichment and immunoblotting); type: cell-based, human; details: 10 nM DHT ± 10 μM Enz, 48 h
Method: (B) KLK activity and expression in the LNCaP cell line after treatment with 10 nM DHT ± 10 μM Enz. KLK activity was assessed by streptavidin enrichment of probe-labeled KLK molecules following treatment of conditioned media with 1 μM of either 31, 20, or 39 for 1 h.
To enable detection of each KLK in WT LNCaP cells, we incubated LNCaP conditioned media with 1 μM of each KLK ABP, enriched labeled proteins on streptavidin beads, and visualized activity levels by immunoblotting with the appropriate KLK antibody (see Figure S19 for workflow).
Routine cell culture conditions: Wild-type LNCaP cells (passage <15) were grown in RPMI
Androgen-signaling Experiments: LNCaP cells grown to 80 % confluency in a T175 plate
were incubated with phenol red-free RPMI media supplemented with 5 % charcoal-stripped
FBS for 24 h. After 24 h, the media was aspirated, and the cells were incubated with serum-
free RPMI media (0 % FBS and phenol red-free) supplemented with the appropriate treatment
condition (10 nM DHT or 10 nM DHT + 10 μM Enzalutamide) for a further 48 h. After 48 h the
media was collected, passed through a 0.2 μm syringe filter and stored at – 80 °C until needed.

KLK3 [1] = details: cited from earlier work
KLK3 [2] = target: T3, KLK3 (Homo sapiens, UniProt P07288); assay: Competitive ABPP against 3 in LNCaP conditioned media, densitometry; type: biochemical; details: LNCaP CM, analogue 1 h then 20 μM 3 for 1 h; 16 analogues tested
T3 construct: endogenous in cells; host or cells: LNCaP cells treated with 10 nM DHT; conditioned medium
Method: Despite exquisite selectivity, maximal KLK3 labeling was achieved only after treatment with 20 μM 3 for 1 h. We therefore optimized probe potency by systematically modifying each amino acid side chain in the P1–P4 positions of a morpholine-capped peptidyl-DPP inhibitor scaffold and determined the potency of each analogue using competitive-ABPP against 3.[25],[26] LNCaP CM was first incubated with a peptidyl-DPP analogue for 1 h, followed by 1 h treatment with 20 μM 3 to assess the degree of KLK3 inhibition by densitometry (Figures S4 and S5 for fluorescent gels and Figure S6 for structures of each morpholine-capped peptidyl-DPP analogue). […] Second generation biotinylated 20 and fluorescent 21 ABPs (Figures 2G and S7) based on this scaffold retained exquisite selectivity for KLK3 in LNCaP CM, but in contrast to first-generation ABP 3 achieved maximum labeling at only 1 μM and readily detectable labeling down to 130 nM (Figures 2H and S7).
Figure S4: Typical gel obtained from assessment of the potency of P1 (top) and P2 (bottom) morpholine-DPP analogues against KLK3 using competitive ABPP. […] Residual KLK3 activity was calculated using densitometry (ImageQuant) by comparing to a DMSO treated sample. […]

[3] = KLK2 probe optimization series, mean ± SEM (N = 3)
[4] = KLK14 probe optimization series, mean ± SEM (N = 3)
[5] = KLK14 probe optimization series

T1 sequence (P20151 25-261): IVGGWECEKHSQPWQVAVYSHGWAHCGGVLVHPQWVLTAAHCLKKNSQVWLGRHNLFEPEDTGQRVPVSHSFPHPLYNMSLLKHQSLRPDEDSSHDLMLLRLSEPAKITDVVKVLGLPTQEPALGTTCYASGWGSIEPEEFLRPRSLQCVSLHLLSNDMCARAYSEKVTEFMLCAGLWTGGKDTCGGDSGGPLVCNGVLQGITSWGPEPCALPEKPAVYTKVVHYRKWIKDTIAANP
T3 sequence (P07288 25-261): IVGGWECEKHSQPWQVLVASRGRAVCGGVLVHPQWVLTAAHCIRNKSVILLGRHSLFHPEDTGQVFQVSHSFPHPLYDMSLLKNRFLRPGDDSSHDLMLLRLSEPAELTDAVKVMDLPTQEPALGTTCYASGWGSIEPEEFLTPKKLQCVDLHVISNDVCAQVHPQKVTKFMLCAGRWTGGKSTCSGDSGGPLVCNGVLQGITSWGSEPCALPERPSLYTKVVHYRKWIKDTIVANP

Row | Compound | selectivity (fold-change) (KLK2; KLK2 probe optimization series) | Kinact/KI KLK2 (KLK2; [3]) | Kinact/KI KLK14 (KLK14; KLK2 probe optimization series) | Kinact/KI KLK14 (KLK14; [5]) | further results
1 | Abu-Dab-4 Pal-Arg [compound 24] | 7 fold | 2586 ± 54 M^–1 s^–1 | 390 ± 15 M^–1 s^–1 |  | 
2 | Thr(Bz)-Dap-Abu-Arg [compound 37] |  |  |  | 12636 ± 496 M^–1 s^–1 | Kinact/KI KLK2 (KLK2; [4]): 1162 ± 40 M^–1 s^–1; selectivity (fold-change) (KLK14; [5]): 11 fold
3 | Tyr(Bz)-Dab-Abu-Arg [compound 41] |  |  |  | 8894 ± 132 M^–1 s^–1 | Kinact/KI KLK2 (KLK2; [4]): 98 ± 4 M^–1 s^–1; selectivity (fold-change) (KLK14; [5]): 91 fold
4 | CCC(NC(=O)CCCCCNC(=O)CCCCC1SCC2NC(=O)NC21)C(=O)NC(CCN)C(=O)NC(CC1CCCCC1)C(=O)NC(c1ccc(NC(=N)N)cc1)P(=O)(Oc1ccccc1)Oc1ccccc1 (stereo not drawn) [compound 22, Abu-Dab-Cha-Arg] | 6 fold |  |  |  | kinact/KI (KLK2; [3]): 3270 ± 39 M⁻¹ s⁻¹; kinact/KI (KLK14; KLK2 probe optimization series): 511 ± 18 M⁻¹ s⁻¹
5 | [Phe(4-Br)][Dab][Abu]R [compound 40] |  |  |  | 20215 ± 570 M^–1 s^–1 | Kinact/KI KLK2 (KLK2; [4]): 350 ± 9 M^–1 s^–1; selectivity (fold-change) (KLK14; [5]): 57 fold
6 | [Abu][Dab]YR [compound 26] | 14 fold | 7881 ± 249 M^–1 s^–1 | 552 ± 11 M^–1 s^–1 |  | 
7 | [Abu][Dab][Phe(4-NH2)]R [compound 23] | 4 fold | 1659 ± 35 M^–1 s^–1 | 432 ± 15 M^–1 s^–1 |  | 
8 | [Dap][Dab]YR [compound 30] |  | 1849 ± 53 M^–1 s^–1 | 134 ± 6 M^–1 s^–1 |  | 
9 | [Abu][Dab]WR [compound 27] | 9 fold | 2374 ± 37 M^–1 s^–1 | 270 ± 5 M^–1 s^–1 |  | 
10 | Abu-Lys(TFA)-Tyr-Arg [compound 29] |  | 128 ± 19 M^–1 s^–1 |  |  | 
11 | Thr(Bz)-Lys-Phe(3,4-F2)-Arg [compound 34] |  |  |  | 602 ± 33 M^–1 s^–1 | 
12 | CC(OCc1ccccc1)C(NC(=O)CCCCCNC(=O)CCCCC1SCC2NC(=O)NC21)C(=O)NC(CCCCN)C(=O)NC(Cc1cn(Cc2ccccc2)cn1)C(=O)NC(c1ccc(NC(=N)N)cc1)P(=O)(Oc1ccccc1)Oc1ccccc1 (stereo not shown) [compound 32, Thr(Bz)-Lys-His(Bz)-Arg] |  |  |  |  | kinact/KI (KLK14; [5]): 523 ± 46 M⁻¹ s⁻¹
13 | C[C@]12CCC(=O)C[C@@H]1CC[C@@H]1[C@@H]2CC[C@]2(C)[C@@H](O)CC[C@@H]12 [DHT, dihydrotestosterone] |  |  |  |  | KLK14 expression and activity (LNCaP cells): decreased; expression and activity of KLK2 and KLK3 (LNCaP cells): upregulated
14 | Thr(Bz)-Lys-Hse(Bz)Arg [compound 33] |  |  |  | 1121 ± 54 M^–1 s^–1 | 
15 | Abu-Dab-Phe(3-CI)-Arg [compound 25] | 8 fold | 3615 ± 107 M^–1 s^–1 | 443 ± 16 M^–1 s^–1 |  | 
16 | CCCCC(NC(=O)C(CCC(N)=O)NC(=O)C(CO)NC(=O)C(Cc1ccccc1)NC(=O)CCCCCN)C(=O)NC(CCCBr)B(O)O (stereo not shown) [compound 2] (H-[Ahx]FSQ[Nle]-X1; configuration not given here) |  |  |  |  | KLK3 inhibition (in words) (KLK3 [1]): potent and selective KLK3 inhibitor
17 | CNC(=O)c1ccc(N2C(=S)N(c3ccc(C#N)c(C(F)(F)F)c3)C(=O)C2(C)C)cc1F [enzalutamide] |  |  |  |  | KLK14 expression and activity (LNCaP cells): restored; expression and activity of KLK2 and KLK3 (LNCaP cells): nullified
18 | [Abu][Dab][Phe(3,4-F2)]R [compound 28] | 2 fold | 5653 ± 265 M^–1 s^–1 | 2526 ± 173 M^–1 s^–1 |  | 
19 | O=C(NC(c1ccc(O)cc1)P(=O)(Oc1ccccc1)Oc1ccccc1)OCc1ccccc1 (stereo not shown) [compound 1] |  |  |  |  | KLK3 inhibition (in words) (KLK3 [1]): modestly potent inhibitor of KLK3
20 | Thr(Bz)-Dab-Abu-Arg [compound 36] |  |  |  | 18274 ± 680 M^–1 s^–1 | Kinact/KI KLK2 (KLK2; [4]): 1668 ± 60 M^–1 s^–1; selectivity (fold-change) (KLK14; [5]): 11 fold
21 | CCC[C@H](NC(=O)[C@H](CCC(N)=O)NC(=O)[C@H](CC(N)=O)NC(=O)CN1CCOCC1)C(=O)NC(c1ccc(C(N)=O)cc1)P(=O)(Oc1ccccc1)Oc1ccccc1 (stereo partly shown) [compound 15] |  |  |  |  | KLK3 inhibition by competitive ABPP (KLK3 [2]): potent KLK3 inhibitor
22 | Thr(Bz)-Lys-Abu-Arg [compound 35] |  |  |  | 5903 ± 254 M^–1 s^–1 | Kinact/KI KLK2 (KLK2; [4]): 231 ± 9 M^–1 s^–1; selectivity (fold-change) (KLK14; [5]): 25 fold
